“Also recorded” adds a separate entry of the source. Where two headings read alike, the source gives them in different places.
Columns and labels:
[1] = Ivosidenib plasma PK after a single oral dose (day −3, dose escalation), LC-MS/MS, non-compartmental; assay type: in vivo; conditions: human; for AUC(0-t): read-out: AUC0-72h
Protocol: In the dose escalation portion, patients with 1) glioma and 2) non-glioma solid tumors were enrolled into sequential cohorts using a standard 3 + 3 design. […] At least 3 patients in each cohort also received a single dose 3 days prior to the start of multiple dosing (i.e., day −3).
These samples were optional for any further patients enrolled in these cohorts. Further blood samples were collected from all patients up to 10 h postdose on cycle 1, day 15 and cycle 2, day 1. A subset of samples was also used for evaluation of plasma 4β-hydroxycholesterol (4β-OHC) and 4β-OHC:cholesterol ratios. Blood samples for assessment of 2-HG only were also collected at screening.
Plasma ivosidenib was measured using two validated liquid chromatography-tandem mass spectrometry (LC-MS/MS) methods. The lower limit of quantification (LLOQ) was 1.00 ng/mL (low-range assay) or 50.0 ng/mL (high-range assay). […] Plasma 2-HG concentrations were measured using a qualified LC-MS/MS method with an LLOQ of 30.0 ng/mL. Concentrations of 2-HG in tumor biopsy samples were quantified using qualified LC-MS/MS methods with an LLOQ of 7.5 μg/g for brain tumor homogenate, 100 ng/g for liver tumor homogenate (low-range assay), and 30 μg/g for liver tumor homogenate (high-range assay). Plasma 4β-OHC and cholesterol were measured using a validated LC-MS/MS method. The LLOQ was 5 ng/mL for 4β-OHC and 25 μg/mL for cholesterol in human plasma.
PK parameters included area under the plasma concentration-time curve (AUC), maximum plasma concentration (Cmax), time to maximum plasma concentration (Tmax), terminal elimination half-life (t1/2), and apparent oral clearance at steady state (CLss/F). Accumulation ratio (Racc), based on Cmax and AUC, was also assessed during the dose escalation portion. PD (2-HG) parameters included baseline-effect value, area under the effect concentration-time curve (AUEC0-10h for the dose escalation portion, or AUEC0-8h for the dose escalation and expansion portions), percent change from baseline in AUEC (%BAUEC0-10h for the escalation portion, or %BAUEC0-8h for the dose escalation and expansion portions), average plasma concentration (Cavg), and percent inhibition for Cavg (%BCavg). For the dose escalation portion, the time-matched ratios of 4β-OHC to cholesterol were calculated.

[2] = Dose proportionality assessment of AUC and Cmax (power model); assay type: in vivo, human
Protocol: Dose proportionality after multiple dosing was tested using data from the QD dose regimens without the 100 mg BID dose group. To assess dose proportionality, the confidence interval (CI) for the slope was estimated, with each natural logarithm (ln)-transformed PK parameter as the dependent variable and the ln-transformed dose as the fixed effect. Analysis was performed using PK parameter estimates at day −3, cycle 1, day 15, and cycle 2, day 1. Dose proportionality was concluded if the 95% CI around the slope included 1 and if the slope was between 0.8 and 1.2 (inclusive).

[3] = Effect of intrinsic and extrinsic factors on ivosidenib CLss/F; assay type: in vivo, human; conditions: 500 mg QD, cycle 2 day 1
Protocol: Continuous factors assessed included age, body weight, body mass index, baseline creatinine clearance (CLcr), baseline estimated glomerular filtration rate (eGFR), and markers of hepatic function (alanine aminotransferase [ALT], alkaline phosphatase [ALP], aspartate aminotransferase [AST], bilirubin, total protein, and albumin). CLcr was calculated using the Cockcroft and Gault equation and eGFR was calculated using the Modification of Diet in Renal Disease – National Kidney Disease Education Program equations [15]. Categorical factors assessed included sex, ethnicity, race, disease status, concomitant CYP3A4 inhibitor and inducer status, baseline hepatic and renal function category, and tumor type. Renal function was categorized as normal (CLcr ≥ 90 mL/min or eGFR ≥90 mL/min/1.73 m^2), mild impairment (CLcr ≥ 60–89 mL/min or eGFR ≥60–89 mL/min/1.73 m^2), moderate impairment (CLcr ≥ 30–59 mL/min or eGFR ≥30–59 mL/min/1.73 m^2), and severe impairment (CLcr ≥ 15–29 mL/min or eGFR ≥15–29 mL/min/1.73 m^2). Hepatic function category was based on National Cancer Institute (NCI) organ dysfunction working group (ODWG) criteria for hepatic dysfunction (0 = normal, 1 = mild, 2 = moderate, 3 = severe, 4 = liver transplant).

[4] = tested on: IDH1-mutant advanced solid tumors; conditions: Cmax,ss or AUCss vs best response, dose range tested
From the text: A total of 6 adverse event categories, based on both laboratory abnormalities and reported adverse events, were included in the exposure-response analyses. […] The efficacy endpoint of interest was best response. The exposure-response analyses used modeled nominal steady-state Cmax (Cmax,ss) or AUC (AUCss) as predictors for safety and efficacy variables in the two subgroups of tumor types described earlier.

[5] = parameters: method as in Agios data on file; conditions: ref Agios data on file; cited from earlier work
[6] = po, 100 mg, glioma, single oral 100 mg, day −3, geometric mean (geometric CV%)
[7] = po, 100 mg, non-glioma solid tumors, single oral 100 mg, day −3, geometric mean (geometric CV%)
[8] = po, 300 mg, glioma, single oral 300 mg, day −3, geometric mean (geometric CV%)
[9] = po, 300 mg, non-glioma solid tumors, single oral 300 mg, day −3, geometric mean (geometric CV%)
[10] = po, 400 mg, non-glioma solid tumors, single oral 400 mg, day −3, geometric mean (geometric CV%)
[11] = po, 500 mg, glioma, single oral 500 mg, day −3, geometric mean (geometric CV%)
[12] = po, 500 mg, non-glioma solid tumors, single oral 500 mg, day −3, geometric mean (geometric CV%)
[13] = po, 600 mg, glioma, single oral 600 mg, day −3, geometric mean (geometric CV%)
[14] = po, 800 mg, non-glioma solid tumors, single oral 800 mg, day −3, geometric mean (geometric CV%)
[15] = po, 900 mg, glioma, single oral 900 mg, day −3, geometric mean (geometric CV%)
[16] = po, 1200 mg, non-glioma solid tumors, single oral 1200 mg, day −3, geometric mean (geometric CV%)

## N#Cc1ccnc(N2C(=O)CC[C@H]2C(=O)N(c2cncc(F)c2)[C@H](C(=O)NC2CC(F)(F)C2)c2ccccc2Cl)c1 [ivosidenib]
[1]; oral, 500 mg, single dose of 500 mg, patients with cholangiocarcinoma/chondrosarcoma, read-out: mean t1/2 (converted)
  half-life: 64 h
[1]; oral, 500 mg, single dose of 500 mg, patients with glioma, read-out: mean t1/2 (converted)
  half-life: 56 h
[1]; oral, after single dose, range of means across doses and tumor types, read-out: terminal half-life (mean)
  half-life: 40 to 102 h
[1]; oral, single dose day −3, range across all tumor types, read-out: median Tmax
  Tmax: 2 to 6 h
[1]; oral, single dose, patients with glioma, range across doses, read-out: mean t1/2 (converted)
  half-life: 40 to 56 h
[1]; oral, single dose, patients with non-glioma solid tumors, range across doses, read-out: mean t1/2 (converted)
  half-life: 62 to 102 h
[1]; [6]
  Cmax: 1270 ng/mL
  AUC(0-t): 32800 ng·h/mL
[1]; po, 100 mg, glioma, single oral 100 mg, day −3, geometric mean (geometric CV%), read-out: t1/2 (converted)
  half-life: 55.5 h
[1]; po, 100 mg, glioma, single oral 100 mg, day −3, median (minimum; maximum), read-out: Tmax
  Tmax: 2.03 h
[1]; [7]
  Cmax: 1400 ng/mL
  AUC(0-t): 34800 ng·h/mL
[1]; po, 100 mg, non-glioma solid tumors, single oral 100 mg, day −3, geometric mean (geometric CV%), read-out: t1/2 (converted)
  half-life: 102 h
[1]; po, 100 mg, non-glioma solid tumors, single oral 100 mg, day −3, median (minimum; maximum), read-out: Tmax
  Tmax: 3 h
[1]; [8]
  Cmax: 2300 ng/mL
  AUC(0-t): 62500 ng·h/mL
[1]; po, 300 mg, glioma, single oral 300 mg, day −3, geometric mean (geometric CV%), read-out: t1/2 (converted)
  half-life: 53.6 h
[1]; po, 300 mg, glioma, single oral 300 mg, day −3, median (minimum; maximum), read-out: Tmax
  Tmax: 4 h
[1]; [9]
  Cmax: 2350 ng/mL
  AUC(0-t): 71600 ng·h/mL
[1]; po, 300 mg, non-glioma solid tumors, single oral 300 mg, day −3, geometric mean (geometric CV%), read-out: t1/2 (converted)
  half-life: 77.9 h
[1]; po, 300 mg, non-glioma solid tumors, single oral 300 mg, day −3, median (minimum; maximum), read-out: Tmax
  Tmax: 4.17 h
[1]; [10]
  Cmax: 4230 ng/mL
  AUC(0-t): 141000 ng·h/mL
[1]; po, 400 mg, non-glioma solid tumors, single oral 400 mg, day −3, geometric mean (geometric CV%), read-out: t1/2 (converted)
  half-life: 77.3 h
[1]; po, 400 mg, non-glioma solid tumors, single oral 400 mg, day −3, median (minimum; maximum), read-out: Tmax
  Tmax: 3 h
[1]; [11]
  Cmax: 2370 ng/mL
  AUC(0-t): 81900 ng·h/mL
[1]; po, 500 mg, glioma, single oral 500 mg, day −3, geometric mean (geometric CV%), read-out: t1/2 (converted)
  half-life: 56.4 h
[1]; po, 500 mg, glioma, single oral 500 mg, day −3, median (minimum; maximum), read-out: Tmax
  Tmax: 3.54 h
[1]; [12]
  Cmax: 3660 ng/mL
  AUC(0-t): 112000 ng·h/mL
[1]; po, 500 mg, non-glioma solid tumors, single oral 500 mg, day −3, geometric mean (geometric CV%), read-out: t1/2 (converted)
  half-life: 64.3 h
[1]; po, 500 mg, non-glioma solid tumors, single oral 500 mg, day −3, median (minimum; maximum), read-out: Tmax
  Tmax: 2.92 h
[1]; [13]
  Cmax: 3380 ng/mL
  AUC(0-t): 77700 ng·h/mL
[1]; po, 600 mg, glioma, single oral 600 mg, day −3, geometric mean (geometric CV%), read-out: t1/2 (converted)
  half-life: 39.5 h
[1]; po, 600 mg, glioma, single oral 600 mg, day −3, median (minimum; maximum), read-out: Tmax
  Tmax: 3 h
[1]; [14]
  Cmax: 6190 ng/mL
  AUC(0-t): 179000 ng·h/mL
[1]; po, 800 mg, non-glioma solid tumors, single oral 800 mg, day −3, geometric mean (geometric CV%), read-out: t1/2 (converted)
  half-life: 62.8 h
[1]; po, 800 mg, non-glioma solid tumors, single oral 800 mg, day −3, median (minimum; maximum), read-out: Tmax
  Tmax: 3 h
[1]; [15]
  Cmax: 3440 ng/mL
  AUC(0-t): 98600 ng·h/mL
[1]; po, 900 mg, glioma, single oral 900 mg, day −3, geometric mean (geometric CV%), read-out: t1/2 (converted)
  half-life: 54.3 h
[1]; po, 900 mg, glioma, single oral 900 mg, day −3, median (minimum; maximum), read-out: Tmax
  Tmax: 2.55 h
[1]; [16]
  Cmax: 5990 ng/mL
  AUC(0-t): 212000 ng·h/mL
[1]; po, 1200 mg, non-glioma solid tumors, single oral 1200 mg, day −3, geometric mean (geometric CV%), read-out: t1/2 (converted)
  half-life: 61.6 h
[1]; po, 1200 mg, non-glioma solid tumors, single oral 1200 mg, day −3, median (minimum; maximum), read-out: Tmax
  Tmax: 6 h
[2]; patients with glioma
  increase in ivosidenib exposure for a doubling of dose: ~40%
[2]; patients with non-glioma solid tumors
  increase in ivosidenib exposure for a doubling of dose: ~70%
[3]
  effect of concomitant weak CYP3A4 inhibitors or inducers on CLss/F: no apparent effect; also recorded: did not appear to affect
  effect of mild or moderate renal impairment or mild hepatic impairment on CLss/F: no apparent effect
[4]
  exposure-efficacy relationship: flat
[5]
  FDA Biopharmaceutical Classification System class: BCS Class II
  permeability (BCS): high permeability
  solubility (BCS): low solubility
